# Experimental data: patent publication US6664241B2, “Water-soluble amide derivatives of polyene macrolides and preparation and uses thereof” (Micrologix Biotech Inc., priority 2000, dated 2003)
# Experiments:
# C. albicans = experiment: Minimum Inhibitory Concentrations (MICs) against C. albicans, NCCLS M27-A broth dilution; assay type: cell-based; conditions: Candida albicans, read-out: MIC
# Description: For each compound synthesized, Minimum Inhibitory Concentrations (MICs) against C. albicans were determined as described in Reference Method for Broth Dilution Antifungal Susceptibility Testing of Yeasts, Approved Standard, NCCLS document M27-A (ISBN 1-56238-328-0), NCCLS, 940 West Valley Road, Suite 1400, Wayne, Pa. 19087, 1997.
# [1] = Maximum non-lethal dose (NLD), single intravenous dose in mice; assay type: in vivo, Swiss-Webster male mice; conditions: test compounds as aspartate salts in 5% mannitol, AmB as FUNGIZONE
# Description: A variety of the compounds synthesized as described in Section 5, supra, were tested in various in vivo assays, as described below. The results of the various assays are provided in TABLE 3, presented at the end of this section. In all of the in vivo assays described, the test compounds, in the form of the aspartate salts, were formulated in an aqueous vehicle (5% mannitol in sterile water; OSMITROL, Baxter Healthcare, Deerfield, Ill.), followed by appropriate dilutions. The formulations were prepared fresh before dosing.
# AmB and AME were also tested for comparison. For AmB, the commercially available FUNGIZONE (Bristol-Meyers Squibb Co.) was used. Reported values are based upon the weight of the AmB active ingredient, not on the basis of the weight of the FUNGIZONE powder. AME was formulated in OSMITROL as described for the test compounds.
# Maximum non-lethal dose (NLD) data were obtained for selected compounds. A single intravenous dose was administered to each of four mice (Swiss-Webster male mice; Simonsen Laboratories, Gilroy, Calif.) in several groups. The doses selected were based upon the NLDs of compounds of similar structures. After review of findings, higher or lower doses were administered and a NLD was determined. The results are tabulated in TABLE 3, below (NLD Acute Mice). The values for AmB and AME are provided for comparison
Structure (SMILES),MIC (C. albicans),NLD acute mice [1]
CC1[C@H](C)OC(=O)C[C@H](O)C[C@H](O)CC[C@@H](O)[C@H](O)C[C@H](O)C[C@]2(O)C[C@H](O)C(C(=O)NN3CCN(C)CC3)C(C[C@@H](OC3O[C@H](C)[C@@H](O)[C@H](NC[C@@]4(O)OC[C@@H](O)[C@@H](O)[C@@H]4O)[C@@H]3O)/C=C/C=C/C=C/C=C/C=C/C=C/C=C/[C@H](C)[C@H]1O)O2 (some centres unmarked) [Compound 100],2 µg/mL,–
CC1[C@H](C)OC(=O)C[C@H](O)C[C@H](O)CC[C@@H](O)[C@H](O)C[C@H](O)C[C@]2(O)C[C@H](O)C(C(=O)N3CCOCC3)C(C[C@@H](OC3O[C@H](C)[C@@H](O)[C@H](NC[C@@]4(O)OC[C@@H](O)[C@@H](O)[C@@H]4O)[C@@H]3O)/C=C/C=C/C=C/C=C/C=C/C=C/C=C/[C@H](C)[C@H]1O)O2 (some centres unmarked) [Compound 131],4 µg/mL,5 mg/kg
CC1[C@H](C)OC(=O)C[C@H](O)C[C@H](O)CC[C@@H](O)[C@H](O)C[C@H](O)C[C@]2(O)C[C@H](O)C(C(=O)N[C@H]3C(O)O[C@H](CO)[C@@H](O)[C@@H]3O)C(C[C@@H](OC3O[C@H](C)[C@@H](O)[C@H](N)[C@@H]3O)/C=C/C=C/C=C/C=C/C=C/C=C/C=C/[C@H](C)[C@H]1O)O2 (some centres unmarked) [Compound 123],5.3 µg/mL,32 mg/kg
CC1[C@H](C)OC(=O)C[C@H](O)C[C@H](O)CC[C@@H](O)[C@H](O)C[C@H](O)C[C@]2(O)C[C@H](O)C(C(=O)NCCc3ccccn3)C(C[C@@H](OC3O[C@H](C)[C@@H](O)[C@H](NC[C@@]4(O)OC[C@@H](O)[C@@H](O)[C@@H]4O)[C@@H]3O)/C=C/C=C/C=C/C=C/C=C/C=C/C=C/[C@H](C)[C@H]1O)O2 (some centres unmarked) [Compound 101],4 µg/mL,–
CC1[C@H](C)OC(=O)C[C@H](O)C[C@H](O)CC[C@@H](O)[C@H](O)C[C@H](O)C[C@]2(O)C[C@H](O)C(C(=O)N[C@H]3C(O)O[C@H](CO)[C@H](O)[C@@H]3O)C(C[C@@H](OC3O[C@H](C)[C@@H](O)[C@H](N)[C@@H]3O)/C=C/C=C/C=C/C=C/C=C/C=C/C=C/[C@H](C)[C@H]1O)O2 (some centres unmarked) [Compound 124],1 µg/mL,16 mg/kg
CC1[C@H](C)OC(=O)C[C@H](O)C[C@H](O)CC[C@@H](O)[C@H](O)C[C@H](O)C[C@]2(O)C[C@H](O)C(C(=O)N3CCN(CCO)CC3)C(C[C@@H](OC3O[C@H](C)[C@@H](O)[C@H](NC[C@@]4(O)OC[C@@H](O)[C@@H](OC5O[C@H](CO)[C@H](O)[C@H](O)[C@H]5O)[C@@H]4O)[C@@H]3O)/C=C/C=C/C=C/C=C/C=C/C=C/C=C/[C@H](C)[C@H]1O)O2 (some centres unmarked) [Compound 147],2 µg/mL,<7.5 mg/kg
CC1[C@H](C)OC(=O)C[C@H](O)C[C@H](O)CC[C@@H](O)[C@H](O)C[C@H](O)C[C@]2(O)C[C@H](O)C(C(=O)N3CCOCC3)C(C[C@@H](OC3O[C@H](C)[C@@H](O)[C@H](NC[C@@]4(O)OC[C@@H](O)[C@H](O)[C@@H]4O)[C@@H]3O)/C=C/C=C/C=C/C=C/C=C/C=C/C=C/[C@H](C)[C@H]1O)O2 (some centres unmarked) [Compound 137],2 µg/mL,5 mg/kg
CC1[C@H](C)OC(=O)C[C@H](O)C[C@H](O)CC[C@@H](O)[C@H](O)C[C@H](O)C[C@]2(O)C[C@H](O)C(C(=O)N3CCN(C)CC3)C(C[C@@H](OC3O[C@H](C)[C@@H](O)[C@H](NC[C@@]4(O)OC[C@@H](O)[C@@H](OC5O[C@H](CO)[C@H](O)[C@H](O)[C@H]5O)[C@@H]4O)[C@@H]3O)/C=C/C=C/C=C/C=C/C=C/C=C/C=C/[C@H](C)[C@H]1O)O2 (some centres unmarked) [Compound 146],2 µg/mL,<7.5 mg/kg
CC1[C@H](C)OC(=O)C[C@H](O)C[C@H](O)CC[C@@H](O)[C@H](O)C[C@H](O)C[C@]2(O)C[C@H](O)C(C(=O)N[C@@H]3C(O)O[C@H](CO)[C@@H](O)[C@@H]3O)C(C[C@@H](OC3O[C@H](C)[C@@H](O)[C@H](N)[C@@H]3O)/C=C/C=C/C=C/C=C/C=C/C=C/C=C/[C@H](C)[C@H]1O)O2 (some centres unmarked) [Compound 125],1 µg/mL,8 mg/kg

# Continued, in another order:
MIC (C. albicans),Structure (SMILES),NLD acute mice [1]
8 µg/mL,CC1[C@H](C)OC(=O)C[C@H](O)C[C@H](O)CC[C@@H](O)[C@H](O)C[C@H](O)C[C@]2(O)C[C@H](O)C(C(=O)NCCN3CCCCC3)C(C[C@@H](OC3O[C@H](C)[C@@H](O)[C@H](NC[C@@]4(O)OC[C@@H](O)[C@@H](OC5O[C@H](CO)[C@@H](O)[C@H](O)[C@H]5O)[C@@H]4O)[C@@H]3O)/C=C/C=C/C=C/C=C/C=C/C=C/C=C/[C@H](C)[C@H]1O)O2 (some centres unmarked) [Compound 120],–
8 µg/mL,CC1[C@H](C)OC(=O)C[C@H](O)C[C@H](O)CC[C@@H](O)[C@H](O)C[C@H](O)C[C@]2(O)C[C@H](O)C(C(=O)NCCc3ccccn3)C(C[C@@H](OC3O[C@H](C)[C@@H](O)[C@H](NC[C@@]4(O)OC[C@@H](O)[C@@H](OC5O[C@H](CO)[C@@H](O)[C@H](O)[C@H]5O)[C@@H]4O)[C@@H]3O)/C=C/C=C/C=C/C=C/C=C/C=C/C=C/[C@H](C)[C@H]1O)O2 (some centres unmarked) [Compound 116],–
8 µg/mL,CC1[C@H](C)OC(=O)C[C@H](O)C[C@H](O)CC[C@@H](O)[C@H](O)C[C@H](O)C[C@]2(O)C[C@H](O)C(C(=O)NCC(O)C(O)C(O)C(O)CO)C(C[C@@H](OC3O[C@H](C)[C@@H](O)[C@H](NC[C@@]4(O)OC[C@@H](O)[C@@H](OC5O[C@H](CO)[C@@H](O)[C@H](O)[C@H]5O)[C@@H]4O)[C@@H]3O)/C=C/C=C/C=C/C=C/C=C/C=C/C=C/[C@H](C)[C@H]1O)O2 (some centres unmarked) [Compound 117],–
8 µg/mL,CC1[C@H](C)OC(=O)C[C@H](O)C[C@H](O)CC[C@@H](O)[C@H](O)C[C@H](O)C[C@]2(O)C[C@H](O)C(C(=O)NCC(O)CO)C(C[C@@H](OC3O[C@H](C)[C@@H](O)[C@H](NC[C@@]4(O)OC[C@@H](O)[C@@H](OC5O[C@H](CO)[C@@H](O)[C@H](O)[C@H]5O)[C@@H]4O)[C@@H]3O)/C=C/C=C/C=C/C=C/C=C/C=C/C=C/[C@H](C)[C@H]1O)O2 (some centres unmarked) [Compound 119],–
4 µg/mL,CC1[C@H](C)OC(=O)C[C@H](O)C[C@H](O)CC[C@@H](O)[C@H](O)C[C@H](O)C[C@]2(O)C[C@H](O)C(C(=O)NN3CCN(C)CC3)C(C[C@@H](OC3O[C@H](C)[C@@H](O)[C@H](NC[C@@]4(O)OC[C@@H](O)[C@H](O)[C@@H]4O)[C@@H]3O)/C=C/C=C/C=C/C=C/C=C/C=C/C=C/[C@H](C)[C@H]1O)O2 (some centres unmarked) [Compound 108],–
3 µg/mL,CC1[C@H](C)OC(=O)C[C@H](O)C[C@H](O)CC[C@@H](O)[C@H](O)C[C@H](O)C[C@]2(O)C[C@H](O)C(C(=O)NCC(O)C(O)C(O)C(O)CO)C(C[C@@H](OC3O[C@H](C)[C@@H](O)[C@H](N)[C@@H]3O)/C=C/C=C/C=C/C=C/C=C/C=C/C=C/[C@H](C)[C@H]1O)O2 (some centres unmarked) [Compound 126],–
2 µg/mL,CC1[C@H](C)OC(=O)C[C@H](O)C[C@H](O)CC[C@@H](O)[C@H](O)C[C@H](O)C[C@]2(O)C[C@H](O)C(C(=O)NCCc3ccccn3)C(C[C@@H](OC3O[C@H](C)[C@@H](O)[C@H](NC[C@@]4(O)OC[C@@H](O)[C@H](O)[C@@H]4O)[C@@H]3O)/C=C/C=C/C=C/C=C/C=C/C=C/C=C/[C@H](C)[C@H]1O)O2 (some centres unmarked) [Compound 109],–
8 µg/mL,CC1[C@H](C)OC(=O)C[C@H](O)C[C@H](O)CC[C@@H](O)[C@H](O)C[C@H](O)C[C@]2(O)C[C@H](O)C(C(=O)NCCc3cccs3)C(C[C@@H](OC3O[C@H](C)[C@@H](O)[C@H](NC[C@@]4(O)OC[C@@H](O)[C@@H](OC5O[C@H](CO)[C@@H](O)[C@H](O)[C@H]5O)[C@@H]4O)[C@@H]3O)/C=C/C=C/C=C/C=C/C=C/C=C/C=C/[C@H](C)[C@H]1O)O2 (some centres unmarked) [Compound 121],–
2 µg/mL,CC1[C@H](C)OC(=O)C[C@H](O)C[C@H](O)CC[C@@H](O)[C@H](O)C[C@H](O)C[C@]2(O)C[C@H](O)C(C(=O)NCC(O)CO)C(C[C@@H](OC3O[C@H](C)[C@@H](O)[C@H](NC[C@@]4(O)OC[C@@H](O)[C@@H](O)[C@@H]4O)[C@@H]3O)/C=C/C=C/C=C/C=C/C=C/C=C/C=C/[C@H](C)[C@H]1O)O2 (some centres unmarked) [Compound 105],–
2.7 µg/mL,Cc1cc(NC(=O)C2C3C[C@@H](OC4O[C@H](C)[C@@H](O)[C@H](NC[C@@]5(O)OC[C@@H](O)[C@@H](O)[C@@H]5O)[C@@H]4O)/C=C/C=C/C=C/C=C/C=C/C=C/C=C/[C@H](C)[C@@H](O)C(C)[C@H](C)OC(=O)C[C@H](O)C[C@H](O)CC[C@@H](O)[C@H](O)C[C@H](O)C[C@](O)(C[C@@H]2O)O3)no1 (some centres unmarked) [Compound 102],–
